What was measured:
[1] = tested on: CD163; assay: Western blot of CD163 in prefrontal cortex brain tissue, acute hypobaric hypoxia model; assay type: in vivo, cynomolgus monkeys; details: FIGS. 4A and 4B
Text: FIG. 4. Triol enhanced the clearance of free hemoglobin in brain tissue by up-regulating CD163 and Heme Oxygenase-1 (HO-1) protein levels. A. Protein expression of hemoglobin scavenger receptor CD163 and heme oxygenase HO-1 in the brain tissue of the prefrontal cortex of cynomolgus monkeys; B. Statistics of protein relative gray scan values. The gray value was obtained by scanning with Image Lab software, and the relative value was obtained after normalizing with α-Tubulin. NN: Normobaric Normoxia group (N=3); HH: Hypobaric Hypoxia group (N=3); HH+Triol: Hypobaric Hypoxia with Triol administration group (N=3); HH+PROG: Hypobaric Hypoxia with progesterone administration group (N=3). […]
1) Preparation of protein samples (see the instructions of M-PER protein lysate): After the cells had been processed for the specified time, the medium was aspirated and then washed with 4° C. pre-chilled PBS (0.01M pH7.2˜7.3) for 3 times. […] 2) BCA protein quantification (see the instructions of BCA protein quantification kit): corresponding components were added to a 96-well detection plate by the ratio of quantification reagent A solution:B solution:ddH2O:protein=100:2:7.5:5, and albumin standards diluted in gradient concentration were added to draw a standard curve. […] After the reaction, the absorbance of each well at a wavelength of 562 nm was detected using a microplate reader. […]

[2] = tested on: Iba1; assay: Immunofluorescence of Iba1 in prefrontal cortex brain tissue, acute hypobaric hypoxia model; assay type: in vivo, cynomolgus monkeys; details: FIG. 5
Text: FIG. 5. […] A. Immunofluorescence imaging of CD163 and Iba-1 in the brain tissue of cynomolgus monkeys. B. Statistics of relative fluorescence intensity of CD163 and Iba-1. C. Correlation analysis of relative fluorescence intensity of CD163 and Iba-1. NN: Normobaric Normoxia group; HH: Hypobaric Hypoxia group; HH+Triol: Hypobaric Hypoxia with Triol administration group; HH+PROG: Hypobaric Hypoxia with progesterone administration group. One-way ANOVA analysis and Dunnutt's t test were used to perform statistical tests, and in the latter each group was compared with the HH group, ***, p<0.001.
The thickness of paraffin sections was 5 μm. For fresh paraffin sections, the sections were dried at 37° C. overnight and then dried at 55° C. for 30 minutes. The sections were quickly placed in xylene for dewaxing. After fully dewaxing with xylene for 10 min for 3 times, absolute ethanol-95% ethanol-90% ethanol-80% ethanol-70% ethanol-50% ethanol-ddH2O were successively used for gradient rehydration. After rehydration, the sections were placed in EDTA antigen repair solution for microwave high temperature repair. After the repair was completed, it was allowed naturally cool down to room temperature. […] NIS-Elements Analysis software was used to analyze the fluorescence intensity of confocal images, which was then normalized with the fluorescence intensity per unit area according to the built-in scale. […]

**Q.** With `C[C@@]12CCCC1C1C[C@@H](O)[C@@]3(O)C[C@@H](O)CC[C@]3(C)C1CC2` (stereo partly drawn) [Triol, 5α-androst-3β,5,6β-triol] as the compound, how does the “down-regulation of CD163 expression caused by acute hypobaric hypoxia” value [1] read?
**A.** Its value is “significantly restored”.

**Q.** What about the Iba1 expression [2] of the same compound?
**A.** The Iba1 expression was “down-regulation”.
